Data from patent US12290519B2, “Anti-inflammatory coupling compound drug, and preparation method therefor and use thereof” (COVAL BIOPHARMA (SHANGHAI) CO., LTD., priority 2021, dated 2025).

Assay: Hydrolysis rate / drug release rate of the compounds (release of JAK inhibitor, HPLC)
Format: physicochemical
Settings: % release of JAK inhibitor from sample in acetonitrile/water=7/3 (v/v), 37° C. constant temperature shaker, sampled days 1-4, HPLC
Method: Analysis Method for Hydrolysis Rate of Compounds of the Present Invention
1. Preparation of Standard Working Curve Solution
(§1) About 10 mg of JAK inhibitors (tofacitinib and baricitinib) reference substances were weighed into a 25 mL volumetric flask, acetonitrile/water=7/3 (v/v) was added to dissolve and dilute to the marked volume, serving as a stock solution. The stock solution was diluted with a suitable dilution factor to obtain linear solutions of each concentration: 0.0002 mg/mL, 0.0004 mg/mL, 0.004 mg/mL, 0.04 mg/mL, and 0.08 mg/mL.
as §1, with “(Oclacitinib, Ruxolitinib, Delgocitinib,” for “(tofacitinib”, “Upadacitinib)” for “baricitinib)”
2. Preparation of Sample Solution
About 5 mg of the sample (the compound prepared in the present invention) was weighed into a 20 mL volumetric flask, acetonitrile/water=7/3 (v/v) was added to dissolve and dilute to the marked volume, serving as a stock solution. An appropriate amount of HPLC was loaded as the 0-day sample. The test solution was sealed with a sealing film and placed in a 37° C. constant temperature shaker. The test samples were taken at the same time on days 1, 2, 3, and 4 respectively. the release amount of JAK inhibitor in the sample was calculated according to the sample weight and JAK inhibitor standard curve.
3. Calculation Formula % Release of JAK Inhibitor r=100%×((AJAK Inhibitor−b)/a)/((W/20×M2/M1) wherein • AJAK inhibitor is the peak area of JAK inhibitor in the sample chromatogram • b is the intercept of the standard curve M1 is the molecular weight of the sample a is the slope of the standard curve
W is the sample weight (mg) M2 is the molecular weight of the JAK inhibitor
4. Chromatographic Conditions

Row | Release Rate (%/day) | Compound
1 | 1.86 %/day | CC(=O)Oc1ccccc1C(=O)n1ccc2c(N(C)[C@H]3CN(C(=O)CC#N)CC[C@H]3C)ncnc21 [Ex. 15, 2-(4-((3R, 4R)-1-(2-cyanoacetyl)-4-methylpiperidin-3-yl) (methyl)amino)-7H-pyrrolo[2,3-d] pyrimidine-7-carbonyl)phenyl acetate]
2 | 39.31 %/day | C[C@@H]1CCN(C(=O)CC#N)C[C@@H]1N(C)c1ncnc2c1ccn2C(=O)[C@@H](NC(=O)OC(C)(C)C)c1ccccc1 [Ex. 16, Tert-butyl ((S)-2-(4-(((3R, 4R)-1-(2-cyanoacetyl)-4-methylpiperidin-3-yl) (methyl)amino)-7H-pyrrolo[2,3-d]pyrimidin-7-yl)-2-oxo-1-phenylethyl)carbamate]
3 | 2.97 %/day | CCS(=O)(=O)N1CC(CC#N)(n2cc(-c3ncnc4c3ccn4C(=O)[C@@H](C)c3ccc4cc(OC)ccc4c3)cn2)C1 [Ex. 18, (S)-2-(1-(ethylsulfonyl)-3-(4-(7-(2-(6-methoxynaphthalen-2-yl)propanoyl)-7H-pyrrolo [2,3-d]pyrimidin-4-yl)-1H-pyrazol-1-yl)azetidin-3-yl) acetonitrile]
4 | 6.25 %/day | CCS(=O)(=O)N1CC(CC#N)(n2cc(-c3ncnc4c3ccn4C(=O)C(C)c3cccc(C(=O)c4ccccc4)c3)cn2)C1 (stereo not shown) [Ex. 19, 2-(3-(4-(7-(2-(3-benzoylphenyl)propanoyl)-7H-pyrrolo [2,3-d]pyrimidin-4-yl)-1H-pyrazol-1-yl)-1-(ethylsulfonyl)azetidin-3-yl) acetonitrile]
5 | 5.06 %/day | CCS(=O)(=O)N1CC(CC#N)(n2cc(-c3ncnc4c3ccn4C(=O)C(C)c3ccc(-c4ccccc4)c(F)c3)cn2)C1 (stereo not shown) [Ex. 20, 2-(1-(ethylsulfonyl)-3-(4-(7-(2-(2-fluoro-[1, 1′-biphenyl]-4-yl)propanoyl)-7H-pyrrolo [2,3-d]pyrimidin-4-yl)-1H-pyrazol-1-yl)azetidin-3-yl) acetonitrile]
6 | 4.6 %/day | CCS(=O)(=O)N1CC(CC#N)(n2cc(-c3ncnc4c3ccn4C(=O)C(C)c3cccc(Oc4ccccc4)c3)cn2)C1 (stereo not shown) [Ex. 21, 2-(1-(Ethylsulfonyl)-3-(4-(7-(2-(3-phenoxyphenyl)propanoyl)-7H-pyrrolo [2,3-d]pyrimidin-4-yl)-1H-pyrazol-1-yl)azetidin-3-yl) acetonitrile]
7 | 2.75 %/day | CCS(=O)(=O)N1CC(CC#N)(n2cc(-c3ncnc4c3ccn4C(=O)C(C)c3ccc(CC4CCCC4=O)cc3)cn2)C1 (stereo not shown) [Ex. 22]
8 | 7.63 %/day | CCS(=O)(=O)N1CC(CC#N)(n2cc(-c3ncnc4c3ccn4C(=O)Cc3c(C)n(C(=O)c4ccc(Cl)cc4)c4ccc(OC)cc34)cn2)C1 [Ex. 23, 2-(3-(4-(7-(2-(1-(4-chlorobenzoyl)-5-methoxy-2-methyl-1H-indol-3-yl)acetyl)-7H-pyrrolo [2,3-d]pyrimidin-4-yl)-1H-pyrazol-1-yl)-1-(ethylsulfonyl)azetidin-3-yl) acetonitrile]
9 | 5.96 %/day | CCS(=O)(=O)N1CC(CC#N)(n2cc(-c3ncnc4c3ccn4C(=O)Cc3ccc(NC(C)=O)cc3)cn2)C1 [Ex. 24, N-(4-(2-(4-(1-(3-(cyanomethyl)-1-(ethylsulfonyl)azetidin-3-yl)-1H-pyrazol-4-yl)-7H-pyrrolo [2,3-d]pyrimidin-7-yl)-2-oxoethyl)phenyl) acetamide]
10 | 0.68 %/day | CCc1cccc2c3c([nH]c12)C(CC)(CC(=O)n1ccc2c(-c4cnn(C5(CC#N)CN(S(=O)(=O)CC)C5)c4)ncnc21)OCC3 (stereo not shown) [Ex. 25, 2-(3-(4-(7-(2-(1,8-diethyl-1,3,4,9-tetrahydropyrano [3,4-b]indol-1-yl)acetyl)-7H-pyrrolo [2,3-d]pyrimidin-4-yl)-1H-pyrazol-1-yl)-1-(ethylsulfonyl)azetidin-3-yl) acetonitrile]
11 | 36.19 %/day | CCS(=O)(=O)N1CC(CC#N)(n2cc(-c3ncnc4c3ccn4C(=O)[C@@H](NC(=O)OC(C)(C)C)c3ccccc3)cn2)C1 [Ex. 26, Tert-butyl (S)-(2-(4-(1-(3-(cyanomethyl)-1-(ethylsulfonyl)azetidin-3-yl)-1H-pyrazol-4-yl)-7H-pyrrolo [2,3-d]pyrimidin-7-yl)-2-oxo-1-phenylethyl) carbamate]
12 | 1.63 %/day | CCC(C(=O)n1ccc2c(-c3cnn(C4(CC#N)CN(S(=O)(=O)CC)C4)c3)ncnc21)c1ccc(N2Cc3ccccc3C2=O)cc1 (stereo not shown) [Ex. 30, 2-2-(1-(Ethylsulfonyl)-3-(4-(7-(2-(4-(1-oxoisoindolin-2-yl)phenyl)butanoyl)-7H-pyrrolo [2,3-d]pyrimidin-4-yl)-1H-pyrazol-1-yl)azetidin-3-yl) acetonitrile]
13 | 3.08 %/day | COc1ccc2cc([C@H](C)C(=O)n3ccc4c(-c5cnn([C@H](CC#N)C6CCCC6)c5)ncnc43)ccc2c1 [Ex. 31]
14 | 7.12 %/day | CC(C(=O)n1ccc2c(-c3cnn([C@H](CC#N)C4CCCC4)c3)ncnc21)c1cccc(C(=O)c2ccccc2)c1 (stereo partly drawn) [Ex. 32, (3R)-3-(4-(7-(2-(3-benzoylphenyl)propanoyl)-7H-pyrrolo [2,3-d]pyrimidin-4-yl)-1H-pyrazol-1-yl)-3-cyclopentylpropanenitrile]
15 | 5.01 %/day | CC(C(=O)n1ccc2c(-c3cnn([C@H](CC#N)C4CCCC4)c3)ncnc21)c1ccc(-c2ccccc2)c(F)c1 (stereo partly drawn) [Ex. 33, (3R)-3-cyclopentyl-3-(4-(7-(2-(2-fluoro-[1, 1′-biphenyl]-4-yl)propanoyl)-7H-pyrrolo [2,3-d]pyrimidin-4-yl)-1H-pyrazol-1-yl) propanenitrile]
16 | 1.57 %/day | CCC(C(=O)n1ccc2c(-c3cnn([C@H](CC#N)C4CCCC4)c3)ncnc21)c1ccc(N2Cc3ccccc3C2=O)cc1 (stereo partly drawn) [Ex. 34, (3R)-3-cyclopentyl-3-(4-(7-(2-(4-(1-oxoisoindolin-2-yl)phenyl)butanoyl)-7H-pyrrolo [2,3-d]pyrimidin-4-yl)-1H-pyrazol-1-yl) propanenitrile]
17 | 4.57 %/day | CCC(C(=O)n1ccc2c(N(C)C3CCC(CS(=O)(=O)NC)CC3)ncnc21)c1ccc(N2Cc3ccccc3C2=O)cc1 (stereo not drawn) [Ex. 35, N-methyl-1-((trans)-4-(methyl (7-(2-(4-(1-oxoisoindolin-2-yl)phenyl)butanoyl)-7H-pyrrolo [2,3-d]pyrimidin-4-yl)amino)cyclohexyl) methanesulfonamide]
18 | 14.98 %/day | CNS(=O)(=O)CC1CCC(N(C)c2ncnc3c2ccn3C(=O)C(C)c2ccc(-c3ccccc3)c(F)c2)CC1 (stereo not drawn) [Ex. 36, 1-((Trans)-4-((7-(2-(2-fluoro-[1, 1′-biphenyl]-4-yl)propanoyl)-7H-pyrrolo [2,3-d]pyrimidin-4-yl) (methyl)amino)cyclohexyl)-N-methyl methanesulfonamide]
19 | 1.05 %/day | CCc1cccc2c3c([nH]c12)C(CC)(CC(=O)n1ccc2c(N(C)C4CCC(CS(=O)(=O)NC)CC4)ncnc21)OCC3 (stereo not drawn) [Ex. 37, 1-((Trans)-4-((7-(2-(1,8-diethyl-1,3,4,9-tetrahydropyrano [3,4-b]indol-1-yl)acetyl)-7H-pyrrolo [2,3-d]pyrimidin-4-yl) (methyl)amino)cyclohexyl)-N-methyl methanesulfonamide]
